Results as given in paper PMC6199744, “Development of Chemical Proteomics for the Folateome and Analysis of the Kinetoplastid Folateome” (ACS Infectious Diseases, 2018).

Key:
DHFR-TS = DHFR-TS (Trypanosoma brucei brucei, UniProt Q27783); test: Individual bead pull down with competing free ligand; conditions: competing free ligand 100 μM; bead = immobilized compound of the row; T. brucei lysate; read-out: % Inhibition of protein binding to bead, DHFR-TS, T. brucei
From the text: (§1) Antifolate compounds were immobilized onto NHS-activated sepharose beads/reverse sepharose beads through amide coupling via either an amino or carboxyl group (see Figure 3). The reaction was monitored by observing the disappearance of test compound by LCMS, after which the unreacted coupling sites were capped with NHS-acetate or aminoethanol.
(§2) Folate metabolizing enzymes are not highly abundant proteins,[19],[20] potentially making their identification by MS difficult. Beads will not only pull down the low abundant high affinity binders but also attract highly abundant, low affinity binders or so-called nonspecific binders. Sometimes, the nonspecific high abundant proteins can mask true binders. The target identification approach used in this study overcomes this issue by performing competition studies. Various concentrations of the free unmodified inhibitor (test compound) were preincubated with the lysate, prior to addition of the beads derivatized with immobilized compounds. Following washing of the bound proteins from the beads and tryptic digest, the peptides were labeled using the TMTs and then pooled. Differences in peptide abundance were analyzed by fragmentation of the isotope-coded isobaric tags in the MS/MS spectra (Figure 5).[9],[11],[12],[21] While the competition experiments with test compound confirm specific binding, it is also possible that some proteins will have a stronger binding interaction with the derivatized beads than the competing test compound, due to subtle differences in the interactions between the immobilized compound and the test compound with the target protein.

PTR-1 = PTR-1 (Trypanosoma brucei brucei, UniProt O76290); test: as above; conditions: competing free ligand 100 μM; bead = immobilized compound of the row; T. brucei lysate; read-out: % Inhibition of protein binding to bead, PTR-1, T. brucei
From the text: as §1, §2

[1] = target: PTERIDINE REDUCTASE (TB927.8.2210) (Trypanosoma brucei brucei, UniProt O76290); test: Multitargeted bead mixture competition; type: binding, T. brucei; conditions: T. brucei lysate
[2] = target: DIHYDROFOLATE REDUCTASE-T[…] (TB427.07.5480) (Trypanosoma brucei brucei, UniProt Q27783); test: Multitargeted bead mixture competition; type: binding; conditions: T. brucei lysate
[3] = test system: HYPOTHETICAL PROTEIN, CONSERVED (TB427.05.3680); test: Multitargeted bead mixture competition; type: binding; conditions: free ligand 100 μM, T. brucei lysate
TB427.04.1870 = test: Multitargeted bead mixture competition; type: binding; conditions: free ligand 100 μM, T. brucei lysate
[4] = test system: CHOLINE KINASE (TB427TMP.18.0017); test: Multitargeted bead mixture competition; type: binding, T. brucei; conditions: multitargeted bead mixture; free ligand 100 μM; T. brucei lysate; TB427TMP.18.0017 CHOLINE KINASE
TB11.03.0290 = test: Multitargeted bead mixture competition; type: binding, T. brucei; conditions: multitargeted bead mixture; free ligand 100 μM; T. brucei lysate; TB11.03.0290
[5] = target: GLYCERALDEHYDE 3-PHOSPHATE DEHYDROGENASE, GLYCOSOM (TB427.06.4300) (Trypanosoma brucei brucei, UniProt P22512); test: Multitargeted bead mixture competition; type: binding, T. brucei
[6] = test system: PHOSPHATIDYLINOSITOL-4-PHOSPHATE 5-KINASE, PUTATIV (TB427.10.3890); test: Multitargeted bead mixture competition; type: binding; conditions: free ligand 100 μM, T. brucei lysate
TB927.8.6460 = test: Multitargeted bead mixture competition; type: binding, T. brucei; conditions: multitargeted bead mixture; free ligand 100 μM; T. brucei lysate; TB927.8.6460
TB09.211.1690 = test: Multitargeted bead mixture competition; type: binding; conditions: free ligand 100 μM, T. brucei lysate
TB927.7.1340 = test: Multitargeted bead mixture competition; type: binding; conditions: free ligand 100 μM, T. brucei lysate
TB927.8.6760 = test: Multitargeted bead mixture competition; type: binding; conditions: free ligand 100 μM, T. brucei lysate
[7] = test system: HYPOTHETICAL PROTEIN, CONSERVED (TB427.03.2670); test: Multitargeted bead mixture competition; type: binding; conditions: free ligand 100 μM, T. brucei lysate
[8] = test system: PEPTIDYL-PROLYL CIS-TRANS ISOMERASE (CYCLOPHILIN- (TB427TMP.211.1350)); test: Multitargeted bead mixture competition; type: binding; conditions: free ligand 100 μM, T. brucei lysate
[9] = test system: BRANCHED-CHAIN AMINO ACID AMINOTRANSFERASE, PUTATI (TB427.02.4590); test: Multitargeted bead mixture competition; type: binding; conditions: free ligand 100 μM, T. brucei lysate
[10] = test system: NGG1 INTERACTING FACTOR 3-LIKE (Tb427tmp.02.5000); type: binding; conditions: multitargeted bead mixture; free ligand 100 μM; T. brucei lysate; Tb427tmp.02.5000
[11] = test system: ACETYLTRANSFERASE, PUTATIVE (Tb427.08.3310); test: Multitargeted bead mixture competition; type: binding; conditions: free ligand 100 μM, T. brucei lysate
[12] = test system: HYPOTHETICAL PROTEIN, CONSERVED (Tb427.10.6100); test: Multitargeted bead mixture competition; type: binding; conditions: free ligand 100 μM, T. brucei lysate
[13] = test system: SUCCINYL-COA SYNTHETASE ALPHA SUBUNIT, PUTATIVE (Tb427.03.2230); test: Multitargeted bead mixture competition; type: binding; conditions: free ligand 100 μM, T. brucei lysate
[14] = test system: IRON/ASCORBATE OXIDOREDUCTASE FAMILY PROTEIN, PUTA (Tb427.02.6180); test: Multitargeted bead mixture competition; type: binding, T. brucei; conditions: multitargeted bead mixture; free ligand 100 μM; T. brucei lysate; Tb427.02.6180
[15] = test system: PROTEIN KINASE, PUTATIVE (Tb427.03.1570); test: Multitargeted bead mixture competition; type: binding; conditions: free ligand 100 μM, T. brucei lysate
methylene-THF-reductase = methylene-THF-reductase (Homo sapiens, UniProt P42898); test: Multitargeted bead mixture competition, HeLa cell extract; type: binding; conditions: bead mixture; HeLa cell extract
[16] = test system: LMJF.26.2560 (hypothetical conserved ATP binding protein); test: Individual MTX bead pull down; conditions: L. major
[17] = test system: LMJF.30.2970 (glyceraldehyde-3-phosphate dehydrogenase, GAPDH); test: Individual MTX bead pull down; type: binding; conditions: L. major

PTERIDINE REDUCTASE (TB927.8.2210), sequence (O76290 entry or part of it): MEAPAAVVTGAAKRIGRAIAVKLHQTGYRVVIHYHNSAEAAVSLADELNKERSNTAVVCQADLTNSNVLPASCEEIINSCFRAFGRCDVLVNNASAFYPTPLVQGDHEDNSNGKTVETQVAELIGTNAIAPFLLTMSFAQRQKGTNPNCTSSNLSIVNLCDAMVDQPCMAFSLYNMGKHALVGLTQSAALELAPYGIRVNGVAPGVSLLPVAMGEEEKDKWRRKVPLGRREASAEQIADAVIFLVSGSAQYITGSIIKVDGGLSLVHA
UniProt P22512, sequence (P22512 whole entry): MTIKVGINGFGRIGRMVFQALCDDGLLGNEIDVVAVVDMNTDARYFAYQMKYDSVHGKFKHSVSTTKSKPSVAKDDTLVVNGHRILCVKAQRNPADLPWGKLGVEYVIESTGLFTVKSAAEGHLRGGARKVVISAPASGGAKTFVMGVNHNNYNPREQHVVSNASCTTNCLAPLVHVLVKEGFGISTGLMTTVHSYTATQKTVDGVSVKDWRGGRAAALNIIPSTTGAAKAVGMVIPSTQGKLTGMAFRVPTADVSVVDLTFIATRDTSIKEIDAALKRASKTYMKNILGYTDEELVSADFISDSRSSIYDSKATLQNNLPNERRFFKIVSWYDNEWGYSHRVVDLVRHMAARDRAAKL
UniProt Q27783, sequence (Q27783 whole entry): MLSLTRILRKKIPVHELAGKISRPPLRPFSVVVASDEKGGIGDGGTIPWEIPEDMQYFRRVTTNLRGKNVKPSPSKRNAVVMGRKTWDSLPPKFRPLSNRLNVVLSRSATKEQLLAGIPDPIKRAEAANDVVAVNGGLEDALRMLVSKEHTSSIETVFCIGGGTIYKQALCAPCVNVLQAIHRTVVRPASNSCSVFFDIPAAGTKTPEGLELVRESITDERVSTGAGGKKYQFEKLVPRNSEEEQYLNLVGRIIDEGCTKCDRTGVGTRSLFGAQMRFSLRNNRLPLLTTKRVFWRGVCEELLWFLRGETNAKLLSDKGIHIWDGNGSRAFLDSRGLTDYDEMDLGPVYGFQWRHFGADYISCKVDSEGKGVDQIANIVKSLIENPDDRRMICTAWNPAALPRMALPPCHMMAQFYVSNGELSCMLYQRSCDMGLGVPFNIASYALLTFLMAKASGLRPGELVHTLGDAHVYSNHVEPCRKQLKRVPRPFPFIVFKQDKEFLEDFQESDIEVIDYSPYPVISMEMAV
PTR-1, sequence (O76290 entry or part of it): as the sequence (O76290 entry or part of it) above
methylene-THF-reductase, sequence (P42898 whole entry): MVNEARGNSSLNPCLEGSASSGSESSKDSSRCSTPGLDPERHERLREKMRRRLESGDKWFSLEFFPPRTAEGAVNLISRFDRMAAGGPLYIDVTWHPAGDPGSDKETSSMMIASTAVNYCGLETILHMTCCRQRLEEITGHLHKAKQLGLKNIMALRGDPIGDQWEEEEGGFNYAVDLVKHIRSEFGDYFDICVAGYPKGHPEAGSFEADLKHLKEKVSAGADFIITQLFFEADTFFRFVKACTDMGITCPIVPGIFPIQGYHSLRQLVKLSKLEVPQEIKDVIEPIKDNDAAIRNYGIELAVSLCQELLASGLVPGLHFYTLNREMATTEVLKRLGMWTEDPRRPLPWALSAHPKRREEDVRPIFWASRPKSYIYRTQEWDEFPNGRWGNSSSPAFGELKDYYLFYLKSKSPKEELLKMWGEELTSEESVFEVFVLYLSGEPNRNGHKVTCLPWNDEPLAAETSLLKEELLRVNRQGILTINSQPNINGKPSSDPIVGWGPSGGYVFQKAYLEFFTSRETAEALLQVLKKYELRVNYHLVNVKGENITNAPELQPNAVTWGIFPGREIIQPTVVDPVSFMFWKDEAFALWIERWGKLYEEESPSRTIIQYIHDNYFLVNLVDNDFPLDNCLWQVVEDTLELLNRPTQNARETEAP
DHFR-TS, sequence (Q27783 whole entry): as the sequence (Q27783 whole entry) above

SMILES: CN(Cc1cnc2nc(N)nc(N)c2n1)c1ccc(C(=O)N[C@@H](CCC(=O)O)C(=O)O)cc1 [MTX, methotrexate]
- inhibition at 100 µM (DHFR-TS): 95%
- inhibition at 100 µM (PTR-1): 90%
- competition for PTR1 (Figure 6) ([1]; bead mixture, compound 100 μM): competed for PTR1
- percentage of competition from bead binding ([1]; multitargeted bead mixture, free ligand 100 μM, TB927.8.2210 PTERIDINE REDUCTASE): 93%
- competition for DHFR-TS (Figure 6) ([2]; bead mixture, compound 100 μM): compete for DHFR-TS
- percentage of competition from bead binding ([2]; multitargeted bead mixture, free ligand 100 μM, TB427.07.5480 DHFR-TS): 85%
- percentage of competition from bead binding [3]: 69%
- percentage of competition from bead binding (TB427.04.1870): 58%
- percentage of competition from bead binding [4]: 57%
- percentage of competition from bead binding (TB11.03.0290): 57%
- binding to GAPDH (Tb427.06.4300) ([5]; bead mixture, T. brucei lysates): bound
- percentage of competition from bead binding ([5]; multitargeted bead mixture, free ligand 100 μM, T. brucei lysate, TB427.06.4300 GAPDH): 56%
- percentage of competition from bead binding [6]: 56%
- percentage of competition from bead binding (TB927.8.6460): 54%
- percentage of competition from bead binding (TB09.211.1690): 51%
- percentage of competition from bead binding (TB927.7.1340): 51%
- percentage of competition from bead binding (TB927.8.6760): 50%
- percentage of competition from bead binding [7]: 50%
- percentage of competition from bead binding [8]: 50%
- percentage of competition from bead binding [9]: 34%
- percentage of competition from bead binding [10]: 31%
- percentage of competition from bead binding [11]: 31%
- percentage of competition from bead binding [12]: 23%
- percentage of competition from bead binding [13]: 18%
- percentage of competition from bead binding [14]: 17%
- percentage of competition from bead binding [15]: 9%
- inhibition, methylene-THF-reductase (methylene-THF-reductase): 77%
- binding of LMJF.26.2560 to MTX [16]: bind to MTX
- binding of LMJF.30.2970 (GAPDH) to MTX [17]: bind to MTX
